Test results as given in patent publication US8993310B2, “Device for diagnosis of physiologic status and/or selection of the best spermatozoa of a semen sample based on chemotaxis, and procedure of use thereof” (Consejo Nacional de Investigaciones Cientificas y Technicas …, priority 2009, dated 2015).
Entries after “also recorded” stand apart in the source; their conditions may differ.

Test system: spermatozoa
Assay: Sperm separation by chemotaxis in the two-compartment device (aggregation in compartment 1a)
Format: cell-based
Conditions: for percentage of aggregated spermatozoa in compartment 1a by chemotaxis (net, Δ vs control): 6 million S/ml, 10 pM progesterone, 20 minutes incubation
Procedure: Separation of mobile spermatozoa (S) of seminal plasma is done by the Percoll technique. A volume of about 2 ml semen is used, which is deposited on 1 ml Percoll gradient (lower layer: 500 μl Percoll 95%, upper layer: 500 μl of Percoll 47.5%, in HAM-F10). After centrifuging 20 minutes at 1800 rpm, the cell pellet is recovered and washed twice by centrifugation for 7 min at 1000 rpm, with HAM-F10 medium. Finally, the recovered pellet is suspended in 1 ml of HAM-F10 medium, cell count is performed in a cell count chamber, and volume is adjusted in order to obtain a concentration of 8 million S/ml. S capability is increased in HAM-F10 medium supplemented with 1% human serum albumin (HSA) for 4 hours a 37° C., under 5% CO2 atmosphere in air.
When capacitation time is finished, S concentration is adjusted in order to obtain 6 million mobile S/ml, and two devices are set up as described in the preceding section (FIGS. 1-3), one without attractant as negative control, and the other with progesterone as attractant.
To set up the device control, a device as described in FIGS. 1 to 3, proceed as follows: 1) the plug is placed in compartment 1a, where culture medium (HAM-F10/1%HSA) is placed, 2) the bridge linking both compartments is filled with culture medium, 3) S suspension is placed in compartment 1b (130 μl of the solution of 6 million mobile S/ml) and this compartment is closed with the plug, 4) compartment 1a is unplugged and filled with culture medium (130 μl).
For device set up with the attractant, another device is prepared as described in FIGS. 1 to 3, like the device control but replacing culture medium with a 10 pM Progesterone solution diluted in culture medium. Once both devices are set up (“Control” and “Attractant”), they are incubated for 20 minutes at 37° C., under 5% CO2 atmosphere in air.
To take the device apart and recover the best spermatozoa, the compartment solution (1a) containing culture medium or attractant is removed. On the spermatozoa suspension removed from compartment 1a of both devices (control and attractant) cell count is performed in a cell count chamber. Then the difference in percentage of S found in each of these two compartments is determined, which enables to value net percentage of S migrating to the attractant-containing compartment (“Δ”).

Row | Structure (SMILES) | sperm aggregation in compartment 1a by chemotaxis when cells were previously treated with inhibitor or antibody (cells pre-treated, progesterone as attractant (FIGS. 8 and 9)) | percentage of aggregated spermatozoa in compartment 1a by chemotaxis (net, Δ vs control) | percentage of aggregated spermatozoa in compartment 1a by chemotaxis (net, Δ vs control) (listed as Progesterone) [%] | sperm aggregation in a decreasing versus an increasing gradient of progesterone (decreasing gradient of attractant compared with increasing gradient (FIG. 10)) | sperm aggregation in the absence of gradient of progesterone (equal concentration of hormone in both compartments 1a and 1b (FIG. 10))
1 | C[C@H]1O[C@@H](n2cnc3c(N)ncnc32)C[C@@H]1O [ddAdo] | no sperm aggregation due to chemotaxis is seen | – | – | – | –
2 | CC(=O)[C@H]1CC[C@H]2[C@@H]3CCC4=CC(=O)CC[C@]4(C)[C@H]3CC[C@]12C [progesterone] | – | about 10% | 9±0.4 | similar | sperm aggregation is reduced; also recorded: no sperm aggregation observed
